# Paper PMC10673250, “Exploring Alkyl Ester Salts of L-Amino Acid Derivatives of Ibuprofen: Physicochemical Characterization and Transdermal Potential” (Molecules, 2023)
# “And” between values parts separate entries of the source, which are not always exact repeats. Equal entries are not always repeated. Structures can show the parent of a compound that is named as a salt. Where two headings read alike, the source gives them in different places.
# How the values were obtained:
# [1] = Thermogravimetric analysis (thermal stability); assay type: physicochemical
# Procedure: Thermal stability was assessed using thermogravimetric studies performed on a […]1 Libra thermomicrobalance (Selb, Germany). The test was carried out in an oxidizing environment, with the flow of nitrogen (protective gas): 10 cm^3·min^-1, air: 25 cm^3·min^-1 in the temperature range from 25 to 1000 °C. Samples weighing approximately 5 mg were heated at 10 °C·min^-1. The decomposition onset temperature (Tonset) was calculated using the intersection of the tangents of the TG curve. The fastest decomposition temperatures (Tmax) were calculated using the first TG curve (DTG curve) derivative.
# [2] = pig skin, concentration 0.01 g·cm^−3; cited from earlier work
# [3] = Solubility in water (saturated solutions, HPLC); assay type: physicochemical; conditions: water at 25 °C
# Procedure: Water solubility was determined by obtaining saturated solutions of the obtained ibuprofenates. For this purpose, the appropriate amount of ibuprofen salt was weighed in a vial, poured with deionized water, and stirred vigorously on a magnetic stirrer at 25 °C for 24 h. After this time, the mixture was filtered using a syringe filter made of MCE (mixed cellulose esters) with a pore diameter 0.45 µm. Then, the filtrate was diluted one hundred times with acetonitrile: water solution (1:1). The concentration of the compound was determined by the HPLC method described in Section 3.2.9.
# [4] = Accumulation in the skin after the permeation test, in vitro; assay type: in vitro ADME, pig; conditions: after 24 h permeation; for accumulation in pig skin: mean ± SD, n = 3
# Procedure: After completing the permeation test, the skin was removed from the Franz chamber, then washed with 0.5% sodium lauryl sulfate solution and dried with a paper towel. After being thoroughly air-dried, the leather was cut into pieces and extracted with 2 cm^3 of methanol for 24 h at 4 °C. Then, the samples were homogenized using a homogenizer (IKA®T18 digital ULTRA TURRAX, Staufen, Germany) for 3 min and centrifuged at 3500 rpm·min^−1 for 5 min. After centrifugation, the solution was analyzed by HPLC. The accumulation of IBU and its salts in pig skin was calculated by dividing the amount of substance remaining in the samples by the weight of the skin sample and it was expressed as the weight of IBU per gram of skin (µg IBU·g^−1).
# [5] = Partition coefficient n-octanol/water (shake-flask, HPLC); assay type: physicochemical; conditions: 25 °C
# Procedure: For L-glutamic acid alkyl ester ibuprofenates, the partition coefficient was determined using n-octanol/water extraction. For this purpose, 10 mg of the substance, weighed with an accuracy of 0.01 mg, was mixed with 5 cm^3 of water saturated with n-octanol and 5 cm^3 of n-octanol saturated with water. The mixture was stirred vigorously at 25 °C for 3 h and then centrifuged at 7500 rpm·min^−1 at 25 °C for 10 min to separate the phases. The phases were then separated. The concentration of the compound was determined in the aqueous layer using the HPLC method (standard curve method).
# The partition coefficient log P was calculated based on Equation (3):(3) logP=logcoct−logcw where: • cw and coct are the concentrations (mg·dm^−3) of the solute in the aqueous and octanol layers.
# The concentration of the compound dissolved in octanol was calculated from Equation (4):(4) coct=c0−cw where: • c0 is the concentration of the compound calculated based on sample weights prepared for analysis.
# The concentration of the substance in the aqueous layer was determined using the SHIMADZU Nexera-i LC-2040C 3D High Plus high-performance liquid chromatography method with a DAD/FLD detector. A mixture of 50% acetonitrile and 50% water was used as the moving fluid under isocratic conditions at a 1 cm^3·min^−1 flow rate. A Kinetex® 2.6 µm F5 100 Å column heated to 35 °C with dimensions of 150 × 4.6 mm^2 from Phenomenex was used. The spectra were recorded at a wavelength of 210 nm. The injection volume for these samples was 50 mm^3. Each measurement was performed three times, and the results were averaged. The concentration of ibuprofen and its salts was calculated from peak area measurements using the calibration curve method (Figure 8). The results were analyzed using LabSolutions/LC Solution System.
# [6] = Permeability of the active substance through pig skin, Franz diffusion chambers, in vitro; conditions: for Jss, steady-state flux: 1% IBU in 70% ethanol, 37 °C; for Jss, steady-state flux / Q%24h, the percentage of the applied dose / LT, lag time / CMP (cumulative permeation mass): n = 3; for Q%24h, the percentage of the applied dose / CMP (cumulative permeation mass): 24 h
# Procedure: Tests for the penetration of the active substance through pig skin were performed using Franz diffusion chambers (Phoenix DB-6, ABL&E-JASCO, Vienna, Austria) with diffusion areas of 1 cm^2 according to the modified method [15].
# Pig skin obtained from the belly was purchased from a local slaughterhouse. The outer layer, 0.5 mm thick, was then removed using a dermatome and cut into 2 cm × 2 cm pieces. Before use in the study, the skin was soaked in buffered saline (PBS) solution at pH 7.4.
# Skin impedance assessment was performed using an LCR meter 4080 (Voltcraft LCR 4080, Conrad Electronic, Hirschau, Germany), which was operated in parallel mode at an alternating frequency of 120 Hz (error for kΩ values < 0.5%). The measurements were made by placing the tips of the measurement probes in the donor and acceptor chambers, separated by a skin sample. Both chambers were filled with PBS buffer pH 7.4. Skin samples with an impedance > 3 kΩ were used for testing, which corresponds to the electrical resistance of human skin [15, 18].
# The acceptor chamber with a capacity of 10 cm^3 was filled with PBS solution (pH 7.4). A total of 1 cm^3 of a solution of ibuprofen or L-amino acid alkyl ester ibuprofenate with a concentration of 1% based on the active substance (ibuprofen) in 70% ethanol was placed in the acceptor chamber.
# The experiment was conducted for 24 h at 37 °C. After 0.5 h, 1 h, 2 h, 3 h, 4 h, 5 h, 8 h, and 24 h from the start of the permeation experiment, 0.5 cm^3 samples of the acceptor fluid were taken, respectively, and refilled with fresh PBS solution. The content of ibuprofen or its salts in the acceptor liquid was determined by HPLC. Based on this concentration, the cumulative mass expressed as ibuprofen was calculated (µg IBU·cm^−2) [3, 19, 20, 21, 22].
# The constant flow coefficient (in µg IBU·cm^−2·h^−1) through the pig skin into the acceptor fluid was determined as the slope of the plot of accumulated mass in the acceptor fluid as a function of time.
# Steady-state flow was estimated from the slope of the linear part of the plot of accumulated mass in the acceptor phase over time. The lag time (LT) was determined based on the x-intercept of the linear part of the graph of accumulated mass in the acceptor phase over time. It was then used to calculate the permeability coefficient Kp using Equation (6):(6) Kp=Jss/C where: • C—concentration in the donor phase (µg·cm^−3).
# The diffusion coefficient (D) was calculated based on Equation (7):(7) D=I^2/6·LT where: • I—diffusion path, skin thickness (mm).
# The skin partition coefficient (Km) was calculated based on Equation (8):(8) Km=Kp·I/D
# [7] = administered on an empty stomach, 71 healthy adults; cited from earlier work
# [8] = TG, oxidizing environment, 10 °C·min^−1
# [9] = in terms of the active substance (ibuprofen)
Structure (SMILES),"Tonset, the onset temperature of the thermal degradation [1, 8] [°C]","Solubility in Water [3, 9] [g IBU·dm^−3]","Jss, steady-state flux [6]","Q%24h, the percentage of the applied dose [6] [%]","Tonset, the onset temperature of the thermal degradation [1] [°C]",Solubility in Water ([3]; as compound) [g·dm^−3],log P [5],CMP (cumulative permeation mass) [6] [g IBU·dm^−3],also measured
CCCCCOC(=O)CCC(N)C(=O)OCCCCC (stereo not drawn) [[Glu(OPent)2][HCl]],169.5,–,–,–,–,–,–,–,–
CC(C)OC(=O)CCC(N)C(=O)OC(C)C (stereo not drawn) [[Glu(OiPr)2][HCl]],174.4,–,–,–,–,–,–,–,–
CC(C)Cc1ccc(C(C)C(=O)O)cc1.CCOC(=O)C(N)CCC(=O)O (stereo not drawn) [[Glu(OEt)][IBU]],–,0.100 ± 0.001,30.855 ± 6.617 µg IBU·cm^−2·h^−1,0.566 ± 0.005,194.2,0.185 ± 0.003,2.37 and 2.374 ± 0.001,0.100 ± 0.001,"permeation rate difference compared to [Glu(OPent)][IBU] ([6]; after 24 h): approximately 0.5 μg∙h^−1; LT, lag time [6]: 0.029 ± 0.050 h"
CC(C)Cc1ccc(C(C)C(=O)[O-])cc1.[Na+] (stereo not drawn) [IBUNa],–,–,–,–,–,–,–,–,Cmax higher compared to rac-IBU [7]: approximately 30%
CC(C)Cc1ccc(C(C)C(=O)O)cc1.CCCCCOC(=O)C(N)CCC(=O)O (stereo not drawn) [[Glu(OPent)][IBU]],–,0.101 ± 0.012,57.098 µg IBU·cm^−2·h^−1 and 57.098 ± 29.761 µg IBU·cm^−2·h^−1,0.582 ± 0.047,206.9,0.208 ± 0.024,2.459 ± 0.002,0.101 ± 0.012,accumulation in pig skin [4]: 625.895 ± 87.275 µg IBU·g^−1 pig skin; permeation rate relative to ibuprofen ([6]; within the first two hours): twice as high as ibuprofen
CCOC(=O)CCC(N)C(=O)OCC (stereo not drawn) [[Glu(OEt)2][HCl]],168.3,–,–,–,–,–,–,–,–
CC(C)Cc1ccc(C(C)C(=O)O)cc1.CCCOC(=O)C(N)CCC(=O)O (stereo not drawn) [[Glu(OPr)][IBU]],–,0.120 ± 0.004,26.451 ± 2.253 µg IBU·cm^−2·h^−1,0.506 ± 0.008,199.7,0.230 ± 0.007,2.380 ± 0.003,0.120 ± 0.004,–
CCCOC(=O)CCC(N)C(=O)OCCC (stereo not drawn) [[Glu(Opr)2][HCl]],170.5,–,–,–,–,–,–,–,–
CCCCOC(=O)CCC(N)C(=O)OCCCC (stereo not drawn) [[Glu(OBu)2][HCl]],172.8,–,–,–,–,–,–,–,–

# Now from value to compound, other results behind:
"Tonset, the onset temperature of the thermal degradation [1, 8] [°C]","Solubility in Water [3, 9] [g IBU·dm^−3]","Jss, steady-state flux [6]","Q%24h, the percentage of the applied dose [6] [%]","Tonset, the onset temperature of the thermal degradation [1] [°C]",Solubility in Water ([3]; as compound) [g·dm^−3],log P [5],CMP (cumulative permeation mass) [6] [g IBU·dm^−3],Structure (SMILES),also measured
–,0.075 ± 0.001,26.539 ± 0.320 µg IBU·cm^−2·h^−1,0.302 ± 0.038,–,–,–,–,"CC(C)Cc1ccc(C(C)C(=O)O)cc1 (racemic) [IBU, (RS)-2-[4-(2-methylpropyl)phenyl]propionic acid, reference compound]","skin penetration rate [2]: 6%; solubility at 24 h ([3]; deionized water, as compound): 75 ± 1 µg/mL; accumulation in pig skin [4]: 1057.468 ± 200.589 µg IBU·g^−1 pig skin; logP [5]: 3.37; LT, lag time [6]: 0.153 ± 0.029 h; D·10^4, diffusion coefficient ([6]; n = 3, value is D·10^4): 27.926 ± 5.802 cm^2·h^−1"
181.5,–,–,–,–,–,–,–,CCC(C)OC(=O)CCC(N)C(=O)OC(C)CC (stereo not drawn) [[Glu(Osec-Bu)2][HCl]],–
–,0.109 ± 0.004,32.282 ± 7.809 µg IBU·cm^−2·h^−1,0.452 ± 0.026,206.8,0.217 ± 0.007,3.000 ± 0.010,0.109 ± 0.004,CC(C)Cc1ccc(C(C)C(=O)O)cc1.CCCCOC(=O)C(N)CCC(=O)O (stereo not drawn) [[Glu(OBu)][IBU]],"accumulated mass relative to ibuprofen [4]: approximately 90%; accumulation in pig skin [4]: 931.823 ± 93.449 µg IBU·g^−1 pig skin; LT, lag time [6]: 0.102 ± 0.069 h"
–,0.203 ± 0.006,23.298 ± 3.459 µg IBU·cm^−2·h^−1,0.373 ± 0.0175,222.9,0.390 ± 0.011,2.860 ± 0.007,–,CC(C)Cc1ccc(C(C)C(=O)O)cc1.CC(C)OC(=O)C(N)CCC(=O)O (stereo not drawn) [[Glu(OiPr)][IBU]],solubility relative to ibuprofen (standard) ([3]; per active mass of ibuprofen): approximately three times higher; penetrated better than ibuprofen ([6]; versus ibuprofen): ~40%
–,0.093 ± 0.012,22.296 ± 1.398 µg IBU·cm^−2·h^−1,0.456 ± 0.048,204.2,0.185 ± 0.024,3.191 ± 0.007,0.093 ± 0.012,CC(C)Cc1ccc(C(C)C(=O)O)cc1.CCC(C)OC(=O)C(N)CCC(=O)O (stereo not drawn) [[Glu(Osec-Bu)][IBU]],–
